The target in the first assay is T1, human LPA1 (Homo sapiens, UniProt Q92633).
T1 construct: expressed in transfected cells; host or cells: Chinese hamster ovary (CHO) cells
T1 sequence (Q92633 whole entry): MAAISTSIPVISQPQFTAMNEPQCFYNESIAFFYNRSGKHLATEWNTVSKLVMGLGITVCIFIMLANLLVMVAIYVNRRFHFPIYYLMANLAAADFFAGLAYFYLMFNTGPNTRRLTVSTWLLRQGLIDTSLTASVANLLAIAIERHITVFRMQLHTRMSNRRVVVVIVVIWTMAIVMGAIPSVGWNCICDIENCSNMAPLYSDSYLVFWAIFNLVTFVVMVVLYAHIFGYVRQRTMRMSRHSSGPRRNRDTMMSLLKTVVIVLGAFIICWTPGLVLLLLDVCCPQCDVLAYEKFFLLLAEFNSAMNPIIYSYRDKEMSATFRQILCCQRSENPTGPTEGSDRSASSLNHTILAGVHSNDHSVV
As to the kind of experiment: LPA1 functional antagonist assay (calcium flux). The format is cell-based. The settings on record: CHO cells overexpressing human LPA1; inhibition of calcium flux induced by 10 nM LPA; read-out: hLPA1 IC50. The method in brief:
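Dye-loaded CHO cells overexpressing human LPA1 (30 min, 37 °C) were preincubated 20 min at room temperature with compound (0.08 nM–5 μM; 0.5% DMSO; HBSS, 20 mM HEPES, 0.1% fatty-acid-free BSA), then stimulated with 10 nM LPA. IC50 is the concentration inhibiting 50% of LPA-induced calcium flux, from a 4-parameter logistic fit.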
Take `CCc1nc(-c2nnn(C)c2CNc2nccc(C(C)(C)C)n2)ccc1O[C@H]1CCC[C@H](C(=O)O)C1` [Example 385]: the IC50 – broadly, the midpoint of a concentration-inhibition curve – worked out at 41 nM.
For the molecule `CCc1nc(-c2nnn(C)c2CNc2nccc(OC)n2)ccc1O[C@H]1CCC[C@H](C(=O)O)C1` [Example 386], the half-inhibitory concentration (IC50) came out at 460 nM.
`CCc1nc(-c2nnn(C)c2CNc2nccc(C3CCC3)n2)ccc1O[C@H]1CCC[C@H](C(=O)O)C1` [Example 387]: the IC50 turned out to be 24 nM.
Regarding `CCc1nc(-c2nnn(C)c2CNc2nccc(C3CC3)n2)ccc1O[C@H]1CCC[C@H](C(=O)O)C1` [Example 388], the IC50 came to 45 nM.
In the case of `CCc1nc(-c2nnn(C)c2CNc2nccc(C(C)C)n2)ccc1O[C@H]1CCC[C@H](C(=O)O)C1` [Example 389], the IC50 turned out to be 9.3 nM.
`CCc1nc(-c2nnn(C)c2CNc2nccc(OC3CC3)n2)ccc1O[C@H]1CCC[C@H](C(=O)O)C1` [Example 390]: the 50% inhibitory concentration (IC50) came out at 17 nM.
Regarding `CCc1nc(-c2nnn(C)c2CNc2ccnc(OC3CC3)n2)ccc1O[C@H]1CCC[C@H](C(=O)O)C1` [Example 391], the IC50 amounted to 208 nM.
As to `CCCOc1ccnc(NCc2c(-c3ccc(O[C@H]4CCC[C@H](C(=O)O)C4)c(CC)n3)nnn2C)n1` [Example 392], the IC50 was 15 nM.
Turning to `CCOc1ccnc(NCc2c(-c3ccc(O[C@H]4CCC[C@H](C(=O)O)C4)c(CC)n3)nnn2C)n1` [Example 393], the IC50 was 15 nM.
For the molecule `Cc1nc(-c2nnn(C)c2Nc2nccc(OCCC(F)(F)F)n2)ccc1O[C@H]1CCC[C@H](C(=O)O)C1` [Example 394], the IC50 turned out to be 103 nM.
Regarding `Cc1nc(-c2nnn(C)c2Nc2nccc(OCCCF)n2)ccc1O[C@H]1CCC[C@H](C(=O)O)C1` [Example 395], the IC50 amounted to 51 nM.
Take `Cc1nc(-c2nnn(C)c2Nc2nccc(OCC(F)(F)F)n2)ccc1O[C@H]1CCC[C@H](C(=O)O)C1` [Example 396]: the IC50 amounted to 42 nM.
Same read-out and setting: with `Cc1nc(-c2nnn(C)c2CNc2cccc(Cc3ccccc3)n2)ccc1O[C@H]1CCC[C@H](C(=O)O)C1` [Example 397] the figure was 1030 nM; with `CCCc1cccc(NCc2c(-c3ccc(O[C@H]4CCC[C@H](C(=O)O)C4)c(C)n3)nnn2C)n1` [Example 398], 27 nM; with `Cc1nc(-c2nnn(C)c2CNc2cccc(C3CC3)n2)ccc1O[C@H]1CCC[C@H](C(=O)O)C1` [Example 399], 531 nM.
As for `Cc1nc(-c2nnn(C)c2CCNc2nccc(C(C)(C)C)n2)ccc1O[C@H]1CCC[C@H](C(=O)O)C1` [Example 400, (1S,3S)-3-((6-(5-(2-((4-(tert-butyl)pyrimidin-2-yl)amino)ethyl)-1-methyl-1H-1,2,3-triazol-4-yl)-2-methylpyridin-3-yl)oxy)cyclohexane-1-carboxylic acid], the IC50 was 679 nM.
In the case of `Cc1nc(-c2nnn(C)c2CCNc2nccc(C(C)C)n2)ccc1O[C@H]1CCC[C@H](C(=O)O)C1` [Example 401], the IC50 came out at 1590 nM.
Turning to `CCOc1cc(C2CCC2)nc(NCc2c(-c3ccc(O[C@H]4CCC[C@H](C(=O)O)C4)c(C)n3)nnn2C)n1` [Example 402], the IC50 came out at 36 nM.
Take `Cn1nnc(-c2ccc(O[C@H]3CCC[C@H](C(=O)O)C3)cn2)c1CNc1ccnc(OCC2(C)CC2)n1` [Example 403]: the concentration for half-maximal inhibition (IC50) came out at 2310 nM.
For the molecule `Cn1nnc(-c2ccc(O[C@H]3CCC[C@H](C(=O)O)C3)cn2)c1COc1nccc(C(F)(F)F)n1` [Example 404], the IC50 was 173 nM.
Regarding `Cc1nc(-c2nnn(C)c2COc2cc(-n3ccnn3)ncn2)ccc1O[C@H]1CCC[C@H](C(=O)O)C1` [Example 405], the IC50 amounted to 129 nM.
Take `CC(C)c1ccnc(NCc2c(-c3ccc(O[C@H]4CCC[C@H](C(=O)O)C4)c(C#N)n3)nnn2C)n1` [Example 406]: the IC50 worked out at 18 nM.
The same measure, in the same setting: with `Cn1nnc(-c2ccc(O[C@H]3CCC[C@H](C(=O)O)C3)c(C#N)n2)c1CNc1nccc(C(C)(C)C)n1` [Example 407] the figure was 104 nM; with `CCCOc1ccnc(NCc2c(-c3ccc(O[C@H]4CCC[C@H](C(=O)O)C4)c(C#N)n3)nnn2C)n1` [Example 408], 22 nM.

A further assay relates to IPF patients.
Test: not given
To be noted: 26-week clinical trial in IPF patients (Palmer et al.); cited from earlier work.
As to `Cc1noc(-c2ccc(-c3ccc(C4(C(=O)O)CC4)cc3)cc2)c1NC(=O)O[C@H](C)c1ccccc1` [BMS-986020], the “rate of FVC (forced vital capacity) decline” value is “significantly reduce”.

A further assay concerns human foetal lung fibroblasts.
Test: not given
The settings on record: Tager et al.; cited from earlier work.
On to `Cc1noc(-c2ccc(CSCCC(=O)O)cc2)c1NC(=O)OC(C)c1ccccc1Cl` (stereo not shown) [Ki16425], for which the “chemotaxis of human foetal lung fibroblasts induced by BAL from IPF patients” value was “blocked”.

The next assay deals with UUO mice.
Test: not given
To be noted: cited from earlier work.
`Cc1noc(-c2ccc(CSCCC(=O)O)cc2)c1NC(=O)OC(C)c1ccccc1Cl` (stereo not shown) [Ki16425]: the “development of renal fibrosis” value is “closely resembled the profile of LPA1 (−/−) mice”.

In another assay the test system is mouse epithelial renal cell line, MCT.
Test: not given
To be noted: co-treatment with LPA, MCT cells; cited from earlier work.
With `Cc1noc(-c2ccc(CSCCC(=O)O)cc2)c1NC(=O)OC(C)c1ccccc1Cl` (stereo not shown) [Ki16425], the “LPA-induced increase in expression of CTGF” value is reported as “almost completely suppressed”.

The subject of a further assay is pancreatic cancer cell lines.
Test: not given
To be noted: highly peritoneal metastatic pancreatic cancer cell line (Yamada et al.); cited from earlier work.
Consider `Cc1noc(-c2ccc(CSCCC(=O)O)cc2)c1NC(=O)OC(C)c1ccccc1Cl` (stereo not shown) [Ki16425], for which the “LPA-induced and ascites-induced invasion activity” value is “blocked”.

Still in this assay, the particulars now being: pancreatic cancer cell lines (Yamada et al.); cited from earlier work.
Consider `Cc1noc(-c2ccc(CSCCC(=O)O)cc2)c1NC(=O)OC(C)c1ccccc1Cl` (stereo not shown) [Ki16425], for which the “in vitro migration in response to LPA and peritoneal fluid (ascites) from pancreatic cancer patients” value is “effectively blocked”.

The test system of another assay is nerve-injured mice.
Test: not given
To be noted: pretreatment, nerve-injured mice (Inoue et al.); cited from earlier work.
With `C[C@@H](N)[C@H]1CC[C@H](C(=O)Nc2ccncc2)CC1` [Example Y-27632], the allodynia and hyperalgesia entry is recorded as “completely abolished”.

Values taken from US11267800B2, “Cyclohexyl acid triazole azines as LPA antagonists” (BRISTOL-MYERS SQUIBB COMPANY, priority 2017, dated 2022).
